Values after ≈ are worked out from the molar mass of the structure shown.
Key:
Format in all cases: cell-based
[1] = test system: Staphylococcus epidermidis; assay: MIC by agar dilution, SEPI 30593; settings: for MIC: Staphylococcus epidermidis, strain SEPI 30593, read-out: Antibacterial Activity Minimum Inhibitory Concentration SEPI 30593; for Antibacterial Activity Minimum Inhibitory Concentration SEPI 30593: strain SEPI 30593
Text: (§1) The in vitro activity of compounds of this invention can be assessed by standard testing procedures such as the determination of minimum inhibitory concentration (MIC) by agar dilution as described in “Approved Standard.

Streptococcus pneumoniae = assay: MIC by agar dilution, SPNE 9912; settings: for MIC: Streptococcus pneumoniae, strain SPNE 9912, read-out: Antibacterial Activity Minimum Inhibitory Concentration SPNE 9912; for Antibacterial Activity Minimum Inhibitory Concentration SPNE 9912: strain SPNE 9912
Text: as §1

Enterococcus faecium = assay: MIC by agar dilution, EFAE 12712; settings: for MIC: Enterococcus faecium, strain EFAE 12712, read-out: Antibacterial Activity Minimum Inhibitory Concentration EFAE 12712; for Antibacterial Activity Minimum Inhibitory Concentration EFAE 12712: strain EFAE 12712
Text: as §1

Moraxella catarrhalis = assay: MIC by agar dilution, MCAT 30607; settings: for MIC: Moraxella catarrhalis, strain MCAT 30607, read-out: Antibacterial Activity Minimum Inhibitory Concentration MCAT 30607; for Antibacterial Activity Minimum Inhibitory Concentration MCAT 30607: strain MCAT 30607
Text: as §1

H. influenzae = assay: MIC by agar dilution, HINF 30063; settings: for MIC: Haemophilus influenzae, strain HINF 30063, read-out: Antibacterial Activity Minimum Inhibitory Concentration HINF 30063; for Antibacterial Activity Minimum Inhibitory Concentration HINF 30063: strain HINF 30063
Text: as §1

Staphylococcus aureus = assay: MIC by agar dilution, SAUR 9213; settings: for MIC: Staphylococcus aureus, strain SAUR 9213, read-out: Antibacterial Activity Minimum Inhibitory Concentration SAUR 9213; for Antibacterial Activity Minimum Inhibitory Concentration SAUR 9213: strain SAUR 9213
Text: as §1

Enterococcus faecalis = assay: MIC by agar dilution, EFAE 9217; settings: for MIC: Enterococcus faecalis, strain EFAE 9217, read-out: Antibacterial Activity Minimum Inhibitory Concentration EFAE 9217; for Antibacterial Activity Minimum Inhibitory Concentration EFAE 9217: strain EFAE 9217
Text: as §1

Streptococcus pyogenes = assay: MIC by agar dilution, SPYO 152; settings: for MIC: Streptococcus pyogenes, strain SPYO 152, read-out: Antibacterial Activity Minimum Inhibitory Concentration SPYO 152; for Antibacterial Activity Minimum Inhibitory Concentration SPYO 152: strain SPYO 152
Text: as §1

Compound | MIC [1] [µg/mL] | MIC (Streptococcus pneumoniae) [µg/mL] | MIC (Enterococcus faecium) [µg/mL] | MIC (Moraxella catarrhalis) [µg/mL] | MIC (H. influenzae) [µg/mL] | MIC (Staphylococcus aureus) [µg/mL] | MIC (Enterococcus faecalis) [µg/mL] | MIC (Streptococcus pyogenes) [µg/mL] | Antibacterial Activity Minimum Inhibitory Concentration SEPI 30593 [1] [µg/mL] | Antibacterial Activity Minimum Inhibitory Concentration SPNE 9912 (Streptococcus pneumoniae) [µg/mL] | Antibacterial Activity Minimum Inhibitory Concentration EFAE 12712 (Enterococcus faecium) [µg/mL] | Antibacterial Activity Minimum Inhibitory Concentration MCAT 30607 (Moraxella catarrhalis) [µg/mL] | Antibacterial Activity Minimum Inhibitory Concentration HINF 30063 (H. influenzae) [µg/mL] | Antibacterial Activity Minimum Inhibitory Concentration SAUR 9213 (Staphylococcus aureus) [µg/mL] | Antibacterial Activity Minimum Inhibitory Concentration EFAE 9217 (Enterococcus faecalis) [µg/mL] | Antibacterial Activity Minimum Inhibitory Concentration SPYO 152 (Streptococcus pyogenes) [µg/mL]
CN=S1(=O)CCN(c2ccc(N3C[C@H](CNC(=S)C4CC4)OC3=O)cc2F)CC1 [Example 26, N-[((5S)-3-{3-Fluoro-4-[1-(methylimino)-1-oxido-1λ^4,4-thiazinan-4-yl]phenyl}-2-oxo-1,3-oxazolidin-5-yl)methyl]cyclopropanecarbothioamide] | 0.5 (≈ 1.13 µM) | 0.25 (≈ 0.567 µM) | 1 (≈ 2.27 µM) | 2 (≈ 4.54 µM) | 4 (≈ 9.08 µM) | 2 (≈ 4.54 µM) | 0.5 (≈ 1.13 µM) | 0.5 (≈ 1.13 µM) |  |  |  |  |  |  |  | 
CCC(=S)NC[C@H]1CN(c2ccc(N3CCS(=O)(=NC(=O)OC)CC3)c(F)c2)C(=O)O1 [Example 27, N-[((5S)-3-{3-Fluoro-4-(1-[(methoxycarbonyl)imino]-1-oxido-1λ^4,4-thiazinan-4-yl)phenyl}-2-oxo-1,3-oxazolidin-5-yl)methyl]propanethioamide] |  |  |  |  |  |  |  |  | 0.5 | 0.125 | 0.5 | 8 | 4 | 2 | 0.5 | 0.5
COC(=O)N=S1(=O)CCN(c2ccc(N3C[C@H](CNC(=S)C4CC4)OC3=O)cc2F)CC1 [Example 28, N-[((5S)-3-{3-Fluoro-4-(1-[(methoxycarbonyl)imino]-1-oxido-1λ^4,4-thiazinan-4-yl)phenyl}-2-oxo-1,3-oxazolidin-5-yl)methyl]cyclopropanecarbothioamide] |  |  |  |  |  |  |  |  | 0.5 | 0.25 | 1 | 2 | 4 | 2 | 1 | 0.5
C[N-][S+2]1([O-])CCC(c2ccc(N3CC(CNC(=S)C4CC4)OC3=O)cc2F)CC1 [Example 31, N-[((5S)-3-{3-Fluoro-4-[1-(methylimino)-1-oxidohexahydro-1λ^4-thiopyran-4-yl]phenyl}-2-oxo-1,3-oxazolidin-5-yl)methyl]cyclopropanecarbothioamide, E-isomer] |  |  |  |  |  |  |  |  | 1 | 0.5 | 2 | 4 | 8 | 2 | 1 | 1
CCC(=S)NCC1CN(c2ccc(C3CC[S+2]([O-])([N-]C)CC3)c(F)c2)C(=O)O1 [Example 32, N-[((5S)-3-{3-Fluoro-4-[1-(methylimino)-1-oxidohexahydro-1λ^4-thiopyran-4-yl]phenyl}-2-oxo-1,3-oxazolidin-5-yl)methyl]propanethioamide, E-isomer] | 1 (≈ 2.34 µM) | 0.5 (≈ 1.17 µM) | 2 (≈ 4.68 µM) | 8 (≈ 18.7 µM) | 8 (≈ 18.7 µM) | 4 (≈ 9.36 µM) | 2 (≈ 4.68 µM) | 1 (≈ 2.34 µM) |  |  |  |  |  |  |  | 
CC(=O)NC[C@H]1CN(c2ccc(N3CCS(=N)(=O)CC3)c(F)c2)C(=O)O1 [PREP 1, N-({(5S)-3-[3-Fluoro-4-(1-imino-1-oxido-1λ^4,4-thiazinan-4-yl)phenyl]-2-oxo-1,3-oxazolidin-5-yl}methyl)acetamide] |  |  |  |  |  |  |  |  | 4 | 1 | 4 | 8 | 16 | 16 | 8 | 2
